In patent US8268849B2, “Multifunctional Antioxidants and methods of use thereof” (priority 2007, dated 2012):

Tests used:
[1] = Chelation study by ESI-MS, Cu^2+ solution; type: binding; settings: 10:1 metal:compound, 45 minutes of mixing
Protocol: (§1) The relative amount of ions bound by JHX-1-JHX-8 was determined by electrospray ionization mass spectrometry (ESI-MS) according to the method of Baron and Hering (Baron and Hering (1998) Spectrometry J. Environ. Qual., 27:844-850). In this method solutions containing Fe^2+, Fe^3+, Cu^1+, Cu^2+, Zn^2+, Ca^2+, Mg^2+ were mixed with compound in ratios of 10:1, 1:1, and 1:10. After 45 minutes of mixing, each solution was directly infused into the MS with constant ionization energy and the relative decreases of the parent peaks in these solutions were determined. […] FIG. 3 illustrates ion binding with increased Fe^+2 concentrations results in decreased compound parent peak heights by ESI-MS when compounds contain appropriate functional groups for metal ion chelation.

[2] = Chelation studies by ESI-MS, overall statement on ion binding; settings: binding order Cu^1+=Cu^2+>Fe^2+=Fe^3+>Zn^2+; no binding with Ca^2+ or Mg^2+
Protocol: as §1

[3] = tested on: SRA-1 human lens epithelial cells; test: ROS staining (H2DCF-DA) in lens epithelial cells; type: cell-based; settings: 24 hour incubation, H2DCF-DA stain; for ROS staining, ROS generated by Fenton reaction: 0.1 mM Fe^2+ and 0.1 mM hydrogen peroxide; for ROS staining, ROS initiated by homocysteine: 10 mM homocysteine (ER stress)
Protocol: The SRA-1 human lens epithelium cell line (Ibaraki et al. (1998) Exp. Eye Res., 67:577-85) was used to evaluate the antioxidant activity of JHX-1-8. These cells were cultured in DMEM media containing 10% fetal bovine serum (FBS), glutamine, NaHCO3, penicillin, and streptomycin at 37° C. in humidified atmosphere of 5% CO2 and 95% air until subconfluent (2-4 days). The cells were passaged when 80-90% confluent by treatment with trypsin-EDTA. The cells were plated at a density of 1×10^4 cells onto 96-well plates or 1×10^6 cells onto 100-mm dishes. ROS levels/effects in cells treated with JHX-1-8 were compared to similar cells treated with the water soluble Vitamin E derivative, Trolox (antioxidant control) or no drug (control).
The compounds were initially screened for antioxidant activity in 24 hour cultured SRA-1 human lens epithelial cells. Reactive oxygen species (ROS) in these cells were generated through both the Fenton reaction in which 0.1 mM Fe^2+ and 0.1 mM hydrogen peroxide were added to the culture media, or by culturing the lens with 10 mM homocysteine which induces endoplasmic reticular (ER) stress that results in the unfolded protein response (UPR) that subsequently generates the ROS. ROS were visualized with 2′,7′-dichlorodihydrofluorescein diacetate (DCF) staining. More specifically, after 24 hours of incubation, all cells were washed 2× with PBS and then incubated at room temperature for 1 hour with 10 μM H2DCF-DA (Invitrogen) stain. Fluorescent ROS staining was analyzed by quantifying pixel intensities of images obtained by fluorescent microscopy. As illustrated below in FIGS. 4A and 4B, compounds with chelating groups only produced a dose-dependent reduction in Fenton Reaction generated ROS. […] Indeed, homocysteine activates ER stress which subsequently initiates ROS through an Unfolded Protein Response (UPR).

[4] = tested on: SRA-1 human lens epithelium cell line; test: MTS cell viability assay; type: cell-based; settings: 1.0 mM H2O2, 2 hours, 1 mM compound
Protocol: The SRA-1 human lens epithelium cell line (Ibaraki et al. (1998) Exp. Eye Res., 67:577-85) was used to evaluate the antioxidant activity of JHX-1-8. […] The cells were passaged when 80-90% confluent by treatment with trypsin-EDTA. The cells were plated at a density of 1×10^4 cells onto 96-well plates or 1×10^6 cells onto 100-mm dishes. ROS levels/effects in cells treated with JHX-1-8 were compared to similar cells treated with the water soluble Vitamin E derivative, Trolox (antioxidant control) or no drug (control). […] Cells were cultured in 96-well plates and exposed for 2 hours to media containing 1.0 mM H2O2 (FIG. 5A) or Fenton reagents (1.0 mM H2O2 and 1.0 mM Fe^2+, FIG. 5B) with/without 1 mM JHX-1-8 or Trolox. Viability was measured as the absorbance of MTS stain at 490 nm 1 hour after the addition of 20 μL of […] AQueous One Solution Cell Proliferation Assay to each well. The results were normalized to blank control (100%) since absorbance is directly proportional to the living cell population.

[5] = tested on: lens opacities after whole head irradiation; type: in vivo; settings: for appearance of lens opacities / delay of lens PSC opacities / delay of the average (50% in all animals) formation of PSC punctuate opacities: 15 Gy whole head irradiation; for delay of lens PSC opacities / delay of the average (50% in all animals) formation of PSC punctuate opacities: compared to untreated rats, JHX 0.025 wt % in chow, Pantethine 1 g/kg i.p.; for toxic effects: irradiated rats
From the text: Cataracts were induced by whole head gamma irradiation in 24 male Long Evans (150-200 g) rats. […] Because of the amount of drug required for this long-term study, the percentage of JHX-4 and JHX-8 utilized was ½ of the dose used in the diabetic study. […] Gamma radiation (6000 Curie Cobalt-60 Source, UNMC Experimental Radiation Facility) was delivered to the whole head of unanesthetized, restrained rats at a dose rate of dose 0.341 Gy/minute for a total dose of 15 Gy. Lens changes were monitored every 7 days by portable slit lamp and recorded on a scale from 0-6 with 0: Clear, 1: Posterior subcapsular haze, 2: Spokes, suture enhancement and powdery posterior subcapsular deposits, 3: Prominent posterior subcapsular punctate opacities with spokes and suture enhancement, 4: Posterior subcapsular opacity blocks appearance of retinal vessels, 5: Start cortical involvement, 6: Total lens opacity, visible with naked eye. Since whole head irradiation results in a temporary loss of salivary gland function, all rats received Nutra-Gel (Bio-Serv) with/without JHX-4 or -8 for the first 66 days. Subsequently, all rats received standard rat chow with/without JHX-4 or -8.

| Structure (SMILES) | % Parent Peak Remaining at 10:1 Solution of Metal:Compound [1] [%] | ion binding [2] | ROS staining, ROS generated by Fenton reaction [3] | ROS staining, ROS initiated by homocysteine [3] | protection against H2O2 induced loss of cell viability [4] | appearance of lens opacities [5] | delay of lens PSC opacities [5] [days] | delay of the average (50% in all animals) formation of PSC punctuate opacities [5] [days] | toxic effects [5] |
| --- | --- | --- | --- | --- | --- | --- | --- | --- | --- |
| CN(C)S(=O)(=O)N1C(=O)CN(c2ncc(O)cn2)CC1=O [JHX-4, 1-N,N′-dimethylsulfamoyl-4-(5-hydroxy-2-pyrimidyl)piperazine-2,6-dione] | 3.0 | bind ions | protected against ROS | reduced ROS staining similar to that with Trolox | protecting against H2O2 induced loss of cell viability | delayed | 38 | 53 | No apparent toxic effects |
| COc1nc(N2CC(=O)N(S(=O)(=O)N(C)C)C(=O)C2)nc(OC)c1O [JHX-8, 1-N,N′-dimethylsulfamoyl-4-(4,6-dimethoxy-5-hydroxy-2-pyrimidyl)piperazine-2,6-dione] | 3.6 | bind ions | protected against ROS | reduced ROS staining similar to that with Trolox | protecting against H2O2 induced loss of cell viability | delayed | 47 | 58 | No apparent toxic effects |
